Measured values from patent US9586914B2, “Modulators of C3a receptors” (THE UNIVERSITY OF QUEENSLAND, priority 2011, dated 2017).

Tests used:
C3a receptor (C3aR) = target: T1, C3a receptor (C3aR) (Homo sapiens, UniProt Q16581); assay: Competitive binding with [^125I]-C3a in HMDM; details: for IC50 / pIC50 ± SEM: Table 6, competitive binding with [^125I]-C3a, HMDM; for IC50: read-out: IC50 (converted); for remaining activity at 20 µM: 1 h, read-out: %[^125I]-C3a binding
T1 construct: peripheral blood mononuclear cells were isolated from buffy coat (obtained from Australian Red Cross Blood Service, Kelvin Grove); endogenous in cells; host or cells: primary human monocyte-derived macrophages (HMDM) differentiated from CD14+ monocytes of donor buffy coat
T1 sequence (Q16581 1-482): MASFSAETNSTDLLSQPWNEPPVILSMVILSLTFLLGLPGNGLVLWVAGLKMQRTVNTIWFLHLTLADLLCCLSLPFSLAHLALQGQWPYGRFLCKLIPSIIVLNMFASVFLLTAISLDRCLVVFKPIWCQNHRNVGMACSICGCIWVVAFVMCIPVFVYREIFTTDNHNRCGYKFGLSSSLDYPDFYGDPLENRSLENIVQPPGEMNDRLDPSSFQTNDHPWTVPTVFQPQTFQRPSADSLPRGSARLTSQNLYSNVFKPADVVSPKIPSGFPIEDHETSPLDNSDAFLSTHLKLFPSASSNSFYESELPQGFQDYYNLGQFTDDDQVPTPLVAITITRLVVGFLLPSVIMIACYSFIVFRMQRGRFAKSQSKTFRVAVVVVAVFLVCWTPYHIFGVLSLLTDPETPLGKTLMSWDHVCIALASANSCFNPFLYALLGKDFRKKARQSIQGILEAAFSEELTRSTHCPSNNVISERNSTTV
Description: For HMDM, peripheral blood mononuclear cells were isolated from buffy coat (obtained from Australian Red Cross Blood Service, Kelvin Grove) using Ficoll-paque density centrifugation (GE Healthcare Bio-Science, Uppsala, Sweden). CD^14+ monocytes were positively selected using CD^14+ MACS magnetic beads (Miltenyi Biotech, Auburn, Calif., USA). […] Cells were harvested by gentle scraping in saline solution and replated for use on Day 7. […] Unbound radioactivity was removed by filtration through glass microfiber filters GF/B (Whatman Iner. […] The filter was washed 3 times with cold buffer (50 mM Tris-HCl) pH 7.4. […] The −log IC50 for each compound was calculated for separate experiments and express as an arithmetic mean standard error (SE). IC50 values were expressed as a geometric mean.

C3aR = target: T2, C3aR (Homo sapiens, UniProt Q16581); assay: Calcium mobilization assay in HMDM (agonist/antagonist activity); assay type: cell-based; details: for EC50: read-out: EC50; for Emax at 10 µM: read-out: % agonist
T2 construct: peripheral blood mononuclear cells were isolated from buffy coat (obtained from Australian Red Cross Blood Service, Kelvin Grove); endogenous in cells; host or cells: primary human monocyte-derived macrophages (HMDM) differentiated from CD14+ monocytes of donor buffy coat
T2 sequence (Q16581 1-482): T1 sequence (Q16581 1-482)
Description: Harvested HMDM cells were washed with 0.9% NaCl solution by centrifugation at 2500 rpm for 5 min, followed by resuspension of the cell pellet with complete media. Cells were seeded at 5×10^4 cells/well in a 96-well black-wall, clear bottom plate (DKSH, Zurich), and left overnight to adhere at 37° C. On the day of the experiment, supernatant was removed and cells were incubated in dye loading buffer (Hank's Balanced Salt Solution (HBSS) with 4 μM Fluo-3, 25 μL pluronic acid, 1% fetal bovine serum (FBS) and 2.5 mM probenecid) for one hour at 37° C. Cells were then washed twice with HBSS and transferred to a Fluorostar spectrofluorimeter (BMG, Durham N.C.) for oxazole compound injection and fluorescence measurements.
Various compounds were examined in the calcium mobilization assay for agonist or antagonist activity compared to hC3a and to the known antagonist SB290157.
HMDMs were seeded into black-wall, clear bottom 96-well plates (Corning Incorporated, NY) at 50,000 cells/well and left to incubate at 37° C. with 5% CO2 overnight for cells to adhere. The medium was removed before being washed with the assay buffer (1×HBSS, 20 mM HEPES, 2.5 mM probenecid, pH 7.4). To each well was added 100 μL of dye-loading buffer made up of 12 mL calcium buffer, 1% FBS, 25 μL of Fluo-3 dye (final concentration of 4 μM) and 25 μL of 20% pluronic acid. The plate was covered in aluminium foil to protect the light-sensitive dye and left to incubate at 37° C. for 1 h. The dye-loading buffer was removed before the cells were washed with the assay buffer to remove excess loading dye. To each well was added 50 μL of fresh assay buffer before the plate was loaded into a FLIPR (Fluorescent Imaging Plate Reader) that can inject treatments and measure any calcium release. To generate agonist plots, calcium release was monitored for 300 seconds. To generate antagonist plots, calcium release was recorded for 900 seconds, which at the same time would allow incubation for the antagonists. After the initial incubation period, an agonist would be added and the response was recorded for 300 seconds. Intracellular release of calcium was recorded via fluorescence measurements at wavelength of 485 nm for excitation and 520 nm for emission.

[1] = Table 9, Ca^2+ mobilization, HMDM

IC50 (C3a receptor (C3aR)) [nM] | EC50 (C3aR; [1]) [nM] | pIC50 ± SEM (C3a receptor (C3aR)) | pEC50 ± SEM (C3aR; [1]) | SMILES | remaining activity at 20 µM (C3a receptor (C3aR)) [%] | Emax at 10 µM (C3aR) [%] | also measured
82 | 135 | – | – | CC(C)(C)OC(=O)N[C@@H](CC1CCCCC1)c1nc(C(=O)N[C@@H](CCCNC(=N)N)C(=O)O)co1 [Compound 5, Boc-L-Cyclohexylalanine-Oxazole-Arg] | – | – | –
26 | 5000 | 7.58 ± 0.07 | 5.30 ± 0.18 | CC[C@H](C)[C@H](NC(=O)c1ccccc1)c1nc(C(=O)N[C@@H](CCCNC(=N)N)C(=O)O)co1 [Compound 6, Benzoyl Isoleucine Oxazole Arginine-OH] | – | – | –
152 | 73 | 6.82 ± 0.10 | 7.14 ± 0.19 | CC[C@H](C)[C@H](NC(=O)Cc1c[nH]c2ccccc12)c1nc(C(=O)N[C@@H](CCCNC(=N)N)C(=O)O)co1 [Compound 9, 2-(1H-indol-3-yl)acetic acid-Isoleucine-Oxazole-Arginine-OH] | – | – | –
754 | 744 | – | – | CC(C)C[C@H](NC(=O)CC(c1ccccc1)c1ccccc1)c1nc(C(=O)N[C@@H](CCCNC(=N)N)C(=O)O)co1 [Compound 19, 3,3-diphenylpropanoic acid-Leucine-Oxazole-Arginine-OH] | – | – | –
5 | 17 | 8.30 ± 0.10 | 7.76 ± 0.36 | CC[C@H](C)[C@H](NC(=O)c1cncc(Br)c1)c1nc(C(=O)N[C@@H](CCCNC(=N)N)C(=O)O)co1 [Compound 20] | – | – | –
104 | 240 | 6.98 ± 0.11 | 6.62 ± 0.28 | CC[C@H](C)[C@H](NC(=O)C1CCCc2ccccc21)c1nc(C(=O)N[C@@H](CCCNC(=N)N)C(=O)O)co1 (stereo partly shown) [Compound 21, Tetrahydronapthalene-isoleucine-oxazole-arginine-OH] | – | – | –
712 | – | 6.15 ± 0.14 | ∞ | CC[C@H](C)[C@H](NC(=O)c1cccc(OC)c1OC)c1nc(C(=O)N[C@@H](CCCNC(=N)N)C(=O)O)co1 [Compound 22, 2,3-dimethoxybenzoic acid-isoleucine-oxazole-arginine-OH] | – | – | EC50 (nM) (C3aR; [1]): ∞
872 | 849 | 6.06 ± 0.13 | 6.07 ± 0.13 | CC[C@H](C)[C@H](NC(=O)c1ccc(OC)cc1OC)c1nc(C(=O)N[C@@H](CCCNC(=N)N)C(=O)O)co1 [Compound 23, 2,4-Dimethoxybenzoic acid-isoleucine-oxazole-arginine-OH] | – | – | –
102 | 527 | 6.99 ± 0.10 | 6.28 ± 0.16 | CC(C)C[C@H](NC(=O)Cc1ccc(F)cc1)c1nc(C(=O)N[C@@H](CCCNC(=N)N)C(=O)O)co1 [Compound 24, 2-(4-fluorophenyl)acetic acid-Leucine-Oxazole-Arginine-OH] | – | – | –
– | – | – | – | Cc1oc([C@H](CC(C)C)NC(=O)c2cc3ccccc3o2)nc1C(=O)N[C@@H](CCCNC(=N)N)C(=O)O [Compound 26, Benzofuran carboxylic acid-Leucine-5-Methyl-Oxazole-Arginine] | 19 | 84 | –
– | – | – | – | Cc1oc([C@H](CC(C)C)NC(=O)c2cc3ccccc3s2)nc1C(=O)N[C@@H](CCCNC(=N)N)C(=O)O [Compound 27, Benzothiophene-2-carboxylic acid-Leucine-5-Methyl-Oxazole-Arginin] | 14 | 62 | –
– | – | – | – | Cc1oc([C@H](CC(C)C)NC(=O)c2cc3ccccc3[nH]2)nc1C(=O)N[C@@H](CCCNC(=N)N)C(=O)O [Compound 28, Indole-2-carboxylic acid-Leucine-5-Methyl-Oxazole-Arginine] | 26 | 56 | –
– | – | – | – | Cc1oc([C@H](CC(C)C)NC(=O)c2ccccn2)nc1C(=O)N[C@@H](CCCNC(=N)N)C(=O)O [Compound 29, Picolinic acid-Leucine-5-Methyl-Oxazole-Arginine] | 31 | 77 | –
– | – | – | – | Cc1oc([C@H](CC(C)C)NC(=O)c2cccnc2)nc1C(=O)N[C@@H](CCCNC(=N)N)C(=O)O [Compound 30] | 29 | 68 | –
– | – | – | – | Cc1oc([C@H](CC(C)C)NC(=O)c2ccncc2)nc1C(=O)N[C@@H](CCCNC(=N)N)C(=O)O [Compound 31, Isonicotinic acid-Leucine-5-Methyl-Oxazole-Arginine] | – | 109 | –
– | – | – | – | Cc1oc([C@H](CC(C)C)NC(=O)C2CCCCC2)nc1C(=O)N[C@@H](CCCNC(=N)N)C(=O)O [Compound 32, Cyclohexane carboxylic acid-Leucine-5-Methyl-Oxazole-Arginine] | 39 | 107 | –
– | – | – | – | Cc1oc([C@H](CC(C)C)NC(=O)CC2CCCCC2)nc1C(=O)N[C@@H](CCCNC(=N)N)C(=O)O [Compound 33, Cyclohexyl acetic acid-Leucine-5-Methyl-Oxazole-Arginine] | 26 | 69 | –
– | – | – | – | Cc1oc([C@H](CC(C)C)NC(=O)CC(C)(C)C)nc1C(=O)N[C@@H](CCCNC(=N)N)C(=O)O [Compound 34, 3,3-Dimethylbutanoic acid-Leucine-5-Methyl-Oxazole-Arginine] | 44 | 70 | –
– | – | – | – | Cc1oc([C@H](CC(C)C)NC(=O)CCC(C)C)nc1C(=O)N[C@@H](CCCNC(=N)N)C(=O)O [Compound 35, 4-Methyl valeric acid-Leucine-5-Methyl-Oxazole-Arginine] | – | 95 | –
– | – | – | – | Cc1oc([C@H](CC(C)C)NC(=O)Cc2ccc(C(F)(F)F)cc2)nc1C(=O)N[C@@H](CCCNC(=N)N)C(=O)O [Compound 36, 4-(Trifluoromethyl)-phenylacetic acid-Leucine-5-Methyl-Oxazole-Arginine] | 61 | 50 | –
– | – | – | – | COc1cccc(C(=O)N[C@@H](CC(C)C)c2nc(C(=O)N[C@@H](CCCNC(=N)N)C(=O)O)c(C)o2)c1 [Compound 42, m-Anisic acid-Leucine-5-Methyl-Oxazole-Arginine] | – | 134 | –
– | – | – | – | Cc1ccc(NC(=O)N[C@@H](CC(C)C)c2nc(C(=O)N[C@@H](CCCNC(=N)N)C(=O)O)c(C)o2)cc1 [Compound 45, p-Tolyl isocyanate-Leucine-5-Methyl-Oxazole-Arginine] | – | 64 | –
– | – | – | – | Cc1oc([C@H](CC(C)C)NC(=O)c2ccc(Oc3ccccc3)cc2)nc1C(=O)N[C@@H](CCCNC(=N)N)C(=O)O [Compound 49, 4-Phenoxybenzoic acid-Leucine-5-Methyl-Oxazole-Arginine] | – | 105 | –
– | – | – | – | N=C(N)NCCC[C@H](NC(=O)c1ccc(C(c2ccccc2)c2ccccc2)o1)C(=O)O [Compound 57, 5-Diphenylmethyl-furan-2-carboxyl-Arg-OH] | – | – | Function at C3aR (agonist / antagonist) (C3aR; text of Example 100): antagonist
– | 60 | – | – | Cc1c(C(=O)N[C@@H](CCCNC(=N)N)C(=O)O)nc([C@H](CC(C)C)NC(=O)OC(C)(C)C)n1C [Compound 81, Boc-Leucine-1-methylimidazole-Arginine-OH] | – | – | –

SMILES | IC50 (C3a receptor (C3aR)) [nM] | EC50 (C3aR; [1]) [nM] | pIC50 ± SEM (C3a receptor (C3aR)) | pEC50 ± SEM (C3aR; [1]) | remaining activity at 20 µM (C3a receptor (C3aR)) [%] | Emax at 10 µM (C3aR) [%] | also measured
CC[C@H](C)[C@H](NC(=O)C(c1ccccc1)c1ccccc1)c1nc(C(=O)N[C@@H](CCCNC(=N)N)C(=O)O)co1 [Compound 7, Diphenyl Acetic Acid Isoleucine Oxazole Arginine] | 137 | 5600 | 6.86 ± 0.08 | 5.25 ± 0.31 | – | – | –
